{"source": "patent US10167326B2", "about": "“Alpha-fetoprotein “ring and tail” peptides” (ALBANY MEDICAL COLLEGE, priority 2010, dated 2019)", "key": {"[1]": {"test_system": "T47D human breast cancer cells", "assay": "T47D cell proliferation assay in the presence of E2", "format": "cell-based", "method": "Anticancer activity of the cyclic peptides was also evaluated using the T47D cell proliferation assay. T47D cells were cultured on collagen-IV coated 24-well plates and treated with each of above peptides in the presence of E2. Final peptide concentrations of each peptide were 10^−6 M and final E2 concentration was 1 nM. Values are reported as mean±SEM (n=6) of four independent experiments. […] One-way ANOVA followed by Tukey's multiple comparison test. p≤0.05.\n(§1) A ‘tail’ was attached to a nine-amino acid ring and included 1 or 2 amino acids defined as hydrophilic or hydrophobic based on the nature of their side-chains. Tails comprising the following amino acid(s): serine (S), tyrosine (Y), […], glutamic acid (E), phenylalanine-serine (FS) and tyrosine-isoleucine (YI) represent hydrophilic tails and tails comprising the following amino acid(s), phenylalanine (F), isoleucine (I) and phenylalanine-isoleucine (FI) are hydrophobic tails. All peptides were administered at a dose of 1 μg/mouse intraperitoneally or 10 μg/mouse by oral gavage. Values are presented as mean±S.E. (n=5). In culture, T47D cells were treated with each peptide at a concentration of 1 μM. Values are presented as mean±S.E (n=6). […] Wilcoxon Rank Sum Test.\n(§2) All peptides were administered at a dose of 1 μg/mouse intraperitoneally or 10 μg/mouse by oral gavage. Values are presented as mean±S.E (n=5). In culture, T47D cells were treated with each peptide at a concentration of 1 μM. Values are presented as mean±S.E (n=6). […] Wilcoxon Rank Sum Test."}, "[2]": {"test_system": "T47D human breast cancer cells", "assay": "T47D cell proliferation assay in the presence of E2", "format": "cell-based", "conditions": "different concentrations in vitro (FIG. 7)"}, "[3]": {"test_system": "estrogen receptor phosphorylation at serine-118", "conditions": "cited from earlier work"}, "[4]": {"test_system": "p21Cip1", "conditions": "cited from earlier work"}, "[5]": {"test_system": "p53", "conditions": "cited from earlier work"}, "[6]": {"target": "T1, estrogen receptor (Homo sapiens, UniProt P03372)", "T1 sequence (P03372 1-595)": "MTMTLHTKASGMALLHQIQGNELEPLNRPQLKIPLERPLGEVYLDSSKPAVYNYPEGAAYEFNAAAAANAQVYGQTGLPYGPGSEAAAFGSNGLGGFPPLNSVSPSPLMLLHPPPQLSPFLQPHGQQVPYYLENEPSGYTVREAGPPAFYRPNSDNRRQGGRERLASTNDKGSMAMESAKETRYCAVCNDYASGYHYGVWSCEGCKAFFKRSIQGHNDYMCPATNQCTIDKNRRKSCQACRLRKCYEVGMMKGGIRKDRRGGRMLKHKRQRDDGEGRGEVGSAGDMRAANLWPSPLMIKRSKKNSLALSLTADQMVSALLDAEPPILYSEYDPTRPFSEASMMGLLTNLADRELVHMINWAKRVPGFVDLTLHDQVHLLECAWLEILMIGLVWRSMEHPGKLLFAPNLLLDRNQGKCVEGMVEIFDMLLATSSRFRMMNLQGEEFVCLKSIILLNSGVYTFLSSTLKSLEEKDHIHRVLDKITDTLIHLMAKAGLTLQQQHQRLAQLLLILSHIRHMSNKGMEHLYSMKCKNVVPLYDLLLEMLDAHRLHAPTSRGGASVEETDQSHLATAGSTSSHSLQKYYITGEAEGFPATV", "conditions": "cited from earlier work"}, "[7]": {"test_system": "E2-stimulated immature mouse uterine growth", "assay": "immature mouse uterine growth assay (inhibition of E2-stimulated uterine growth)", "format": "in vivo", "method": "Four cyclic peptides of decreasing ring size (Table 1) were synthesized and were assessed for antiestrogenic activity using the immature mouse uterine assay. Negative control mice received saline alone. Positive control mice received E2 alone. AFPep was used as a positive control peptide and cyclic Scr was used as a peptide control. Mice were injected intraperitoneally (i.p.) with each of these peptides at a dose of 1 μg/mouse. One hour later mice received 0.5 ug 17β-estradiol (E2) i.p. Twenty-two hours later uteri were dissected, weighed, and normalized to body weight. The results are reported as mean±S.E (n=5) for four independent experiments.\nas §1, §2\nTo evaluate peptide-induced inhibition by the peptide of the present invention of estrogen-stimulated proliferation of normal tissue, the immature mouse uterine growth assay was utilized. Briefly, 13-15 day-old Swiss/Webster female mice, 6-8 g in body weight, were distributed into treatment groups of 5 mice per group so that each group contained animals of the same range of body weight. The peptide of the invention was injected i.p., s.c., or p.o. into the mice. One hour later, estradiol (E2) or vehicle control for E2 was injected i.p. Twenty-two hours after the second injection, uteri were harvested, trimmed free of mesenteries, and immediately weighed. The uterine weights were normalized to mouse body weights to compensate for differences in body weight among litters of the same age. Experiments employed a minimum of five mice per group and the mean normalized uterine weight±SE for each group was calculated. Percent growth inhibition in a test group was calculated from normalized uterine wet weights as described below.\nThe ability to inhibit E2-stimulated growth of normal mouse uterus was used as a screening assay for biological activity of AFPep analogs. In general, inhibitory activity ≥20% is considered to be biologically significant. Each analog's inhibitory effect on E2-stimulated growth was compared to AFPep (a positive control) and to PGVGQ (SEQ ID NO: 51)(a negative control). PGVGQ (SEQ ID NO: 51 amino acids 478-482 of AFP) is a portion of the primary structure of AFP near to the anti-cancer active site of AFP and is comprised of amino acids (P, V, and G) that are important components of AFPep."}, "[8]": {"test_system": "c-erb2", "conditions": "after stimulation by E2 or EGF in MCF-7 cells; cited from earlier work"}}, "note": "“Also recorded” adds a separate entry of the source. Non-standard residues stand in square brackets, D forms with d. Residues, ends and D or L forms follow the SMILES beside them. Hyp = O=C(O)[C@@H]1C[C@@H](O)CN1", "data": [{"compound": "CC(C)[C@@H]1NC(=O)[C@@H]2C[C@@H](O)CN2C(=O)[C@H]([C@@H](C)O)NC(=O)[C@H](CCCCN)NC(=O)[C@H](CCC(=O)O)NC(=O)[C@H](CC(N)=O)NC(=O)CNC(=O)[C@@H]2C[C@@H](O)CN2C(=O)[C@H](CC(N)=O)NC1=O", "note": "[AFPep, cyclo[EKTOVNOGN], reference compound] (cyclo(EKT[Hyp]VN[Hyp]GN))", "values": [{"measurement": "Inhibition ± S.E, % T47D cell proliferation", "setting": "[1]; peptide 1 μM, E2-stimulated, mean±S.E (n=6), * p<0.05 vs E2 alone", "result": "51 ± 4* %"}, {"measurement": "anticancer activity of cyclic analogs of different ring size (T47D proliferation inhibition)", "setting": "[1]; peptide 10^−6 M, E2 1 nM (FIG. 5B)", "result": "significantly different from the other analogs; also recorded: significantly better inhibition of E2-stimulated growth in vivo and in vitro than the other analogs"}, {"measurement": "inhibition of E2-stimulated T47D human breast cancer cell growth, concentration response profile", "setting": "[2]", "result": "inhibited E2-stimulated T47D cell growth up to a concentration of 10^−6M and then loss its effectiveness at higher concentrations"}, {"measurement": "E2-induced estrogen receptor phosphorylation at serine-118", "setting": "[3]", "result": "significantly inhibited"}, {"measurement": "nuclear p21Cip1 activation", "setting": "[4]", "result": "increases"}, {"measurement": "serine-15 phosphorylation on p53", "setting": "[5]", "result": "significantly increased"}, {"measurement": "binding to the E2-binding site of the estrogen receptor", "setting": "[6]", "result": "does not bind"}, {"measurement": "antiestrogenic activity of cyclic analogs of different ring size (uterine growth inhibition)", "setting": "[7]; 1 μg/mouse i.p. (FIG. 5A)", "result": "significantly better inhibition of E2-stimulated growth in vivo and in vitro than the other analogs"}, {"measurement": "uterine growth inhibition dose response of AFPep combined with antagonist analog", "setting": "[7]; combination of AFPep and ring and tail antagonist with disrupted pharmacophore and hydrophilic tail (FIG. 11, 12)", "result": "restored by addition of the antagonist analog; also recorded: can be overcome by using a combination of AFPep and an analog with a hydrophilic tail; also recorded: sigmoidal dose range curve"}, {"measurement": "inhibition of E2-stimulated uterine growth, dose response profile", "setting": "[7]; over a number of doses (FIG. 6)", "result": "significantly inhibited E2-stimulated uterine growth to a dose of 10 μg and then loses its effectiveness at higher doses"}, {"measurement": "transactivation of c-erb2 leading dephosphorylated ERK1/2", "setting": "[8]", "result": "prevent the transactivation of c-erb2"}]}]}
